# Tests used:
# [1] = tested on: Brassica napus events from construct 1; assay: First year efficacy field trials, construct 1 events; assay type: in vivo
# Method: (§1) The 25 events were also evaluated in first year field testing for efficacy located at the same testing site as the agronomy field trials. Efficacy field trials were initiated to evaluate the vegetative and reproductive tolerance of the events to sequential applications of glyphosate at various application timings and rates. The 16 R2 events from construct 1 were evaluated at 5 locations. The 3 R2 events from construct 2, the 3 R2 events from construct 4, and the 3 R2 events from construct 5 were evaluated at 4 locations. Each study contained the positive isoline of each event and two commercial varieties. A split plot design with 3 replications was used with herbicide treatments as whole plots and event entries as subplots. A non-sprayed treatment was included for comparison.
# Events were evaluated for vegetative and reproductive tolerance to either a single application of 1.6 lb AE/A or two sequential applications of 0.8 lb AE/A when applied from crop emergence up to first flower. Roundup WeatherMAX® was applied at three different rates that were equivalent to 2×, 4×, and 8× of the single application rate (Table 2). The initial application was made at the four leaf stage followed by a second application at the prebolt stage. […]
# (§2) Data Collection was performed as above. Glyphosate injury was assessed as follows. […] Vegetative injury was rated after the first glyphosate application while reproductive percent chlorosis/necrosis was evaluated after the second application using a scale ranging from 0% (no injury) to 100% (plant death). Growth reduction was evaluated at 14 to 21 days after each application using a scale ranging from 0 to 100%. Vegetative growth reduction was evaluated after the first application while reproductive growth reduction was determined after the sequential application. Least-squares means were calculated for each combination of glyphosate level and event, and t-tests were used to determine the significance of the effects of glyphosate on event tolerance. […]
# [2] = tested on: canola comprising event MON 88302 (Ebony germplasm); assay: Field trial of glyphosate tolerance, MON 88302 event (crop injury, maturity, seed moisture, yield); assay type: in vivo, Brassica napus; conditions: for 7-10 DAT % CHLR Avg / 14-21 DAT % GR Avg: MON88302
# Source text: (§3) The current registered glyphosate rate for the Genuity™ Roundup Ready® Canola system (event RT73) is a single application of 675 g ae/ha or two 450 g ae/ha applications up to the six leaf stage of the canola crop. RT73 was compared with the MON 88302 event at multiple single application rates of glyphosate. Applications were made from post emergence to the first flower of the canola crop. The Genuity™ Roundup Ready® Canola system (RT73 event) was represented by the commercial open pollinated variety 34-65, and event MON88302 was transformed into the Ebony germplasm.
# (§4) Eight trials were established with six taken to harvest (one site was lost to drought and one site was lost to hail, and data from one harvested site was not used due to the coefficient of variation (CV) exceeding the predetermined cut-off value). Standard canola growing practices were utilized throughout the season to optimize plant growth. Pre-emergent and post-emergent conventional herbicides and seed treatment containing fungicide and insecticide were used to minimize pest pressure. Trials were set up as a split block design with Genuity™ Roundup Ready® Canola (RT73 event) or MON 88302 systems blocked and herbicide rates randomized within the block. Plots were two by six meters and replicated three times. Plots were sprayed with handheld boom sprayers at 100-110 l/ha application rate at the appropriate crop stage. The Canadian formulation of Roundup WeatherMAX® (540 g/L) was used as the glyphosate product. The four to six leaf stage was defined as four to six true leaves on the main stem, and first flower was when 50% of the plants had at least one flower. Percent chlorosis (% CHLR) was recorded seven to ten days after herbicide application (DAT or days after treatment). Percent chlorosis is a visual estimate of the amount of yellowing on the leaves of plants as a result of herbicide treatment compared to the untreated check on a 1 to 100 scale. Percent growth reduction (% GR) was recorded 14-21 days after herbicide application (DAT). Percent growth reduction is a visual evaluation used to describe plant growth reduction consisting of, but not limited to, reduced height and/or quantity of foliage for the treated area. The evaluation pertains only to the above ground portion of the plant. Percent growth reduction is compared to the non-treated check and is rated on a 1 to 100 scale. Maturity was recorded as days after planting to when 30% of the seeds on the main raceme are brown/black in color. Percent seed moisture was recorded electronically during harvesting. All plots were swathed and then allowed to dry until seed moisture was low enough to facilitate harvesting. Weight and seed moisture was recorded electronically during harvesting and converted to bushels/acre at 10% seed moisture. Each location was analyzed individually and averages across locations were analyzed using statistical software. Data were screened for outliers using the standard two-pass procedure based on deleted studentized residuals using a False Discovery Rate (FDR) adjustment for an experiment-wise Type I error rate of 5% at each location. Outliers were removed prior to analysis. The standard analysis of variance for a split-plot design was performed by mixed model with restricted maximum likelihood estimation-variety and herbicide treatments were treated as fixed effects, replications and locations were random effects. Least-squares means were calculated for each variety and each treatment, and t-tests with comparison-wise error rates of 5% were used to determine the significance between variety and control at each herbicide treatment level on canola growth characteristics. Crop injury, maturity, and yield were measured to assess benefits.
# [3] = tested on: Brassica napus events from construct 2; assay: First year efficacy field trials, construct 2 events; assay type: in vivo
# Method: as §1, with “A split plot design with 3 replications was used with herbicide treatments as whole plots and event entries as subplots. A non-sprayed treatment was included for comparison.” left out
# Events were evaluated for vegetative and reproductive tolerance to either a single application of 1.6 lb AE/A or two sequential applications of 0.8 lb AE/A when applied from crop emergence up to first flower. […]
# as §2, with “application.” for “application. Least-squares means were calculated for each combination of glyphosate level and event, and t-tests were used to determine the significance of the effects of glyphosate on event tolerance.”
# [4] = tested on: canola comprising event RT73 (Genuity Roundup Ready Canola, variety 34-65); assay: Field trial of glyphosate tolerance, RT73 event (crop injury, maturity, seed moisture, yield); assay type: in vivo, Brassica napus
# Source text: as §3, §4
# [5] = glyphosate 450 g ae/ha at 1st flower
# [6] = glyphosate 450 g ae/ha at 4-6 leaf
# [7] = glyphosate 900 g ae/ha at 1st flower
# [8] = glyphosate 900 g ae/ha at 4-6 leaf
# [9] = glyphosate 1800 g ae/ha at 1st flower
# [10] = glyphosate 3600 g ae/ha at 1st flower
# [11] = glyphosate 3600 g ae/ha at 4-6 leaf
# [12] = glyphosate 11800 g ae/ha at 4-6 leaf
# [13] = glyphosate 1800 g ae/ha at 4-6 leaf
structure (smiles),measurement,setting,value
"O=C(O)CNCP(=O)(O)O [glyphosate, N-phosphonomethyl-glycine]",vegetative injury,[1]; 2× product concept rate,very minor
same,yield,"[1]; regardless of rate, one event excepted at 6.4 lb AE/A followed by 6.4 lb AE/A",not negatively impacted
same,vegetative and reproductive tolerance to glyphosate,"[1]; sequential applications at four leaf and prebolt, 2×, 4×, 8× rates",excellent vegetative and reproductive tolerance
same,7-10 DAT % CHLR Avg,[2]; [5],0.0%
same,14-21 DAT % GR Avg,[2]; [5],0.0%
same,7-10 DAT % CHLR Avg,[2]; [6],0.0%
same,14-21 DAT % GR Avg,[2]; [6],0.3%
same,7-10 DAT % CHLR Avg,[2]; [7],0.3%
same,14-21 DAT % GR Avg,[2]; [7],0.8%
same,7-10 DAT % CHLR Avg,[2]; [8],0.7%
same,14-21 DAT % GR Avg,[2]; [8],0.7%
same,7-10 DAT % CHLR Avg,[2]; [9],0.9%
same,14-21 DAT % GR Avg,[2]; [9],0.0%
same,7-10 DAT % CHLR Avg,[2]; [10],4.7%
same,14-21 DAT % GR Avg,[2]; [10],1.1%
same,7-10 DAT % CHLR Avg,[2]; [11],1.7%
same,14-21 DAT % GR Avg,[2]; [11],0.3%
same,7-10 DAT % CHLR Avg,[2]; [12],1.7%
same,14-21 DAT % GR Avg,[2]; [12],no percent growth reduction
same,14-21 DAT % GR Avg,"[2]; glyphosate 11800 g ae/ha at 4-6 leaf, listed as Glyphosate",0.0%
same,yield reduction,"[2]; MON 88302 plants, 1800 g ae/ha and 2× at four to six leaf (FIG. 2)",No significant yield reductions
same,maturity,"[2]; MON 88302 plants, 1800 g ae/ha at four to six leaf",significant shortening of maturity
same,maturity,"[2]; MON 88302 plants, all rates except 1800 g ae/ha at four to six leaf",No delay in maturity
same,yield vs unsprayed,"[2]; MON 88302 plants, any rate or timing",No significant differences in yield
same,yield reduction,"[2]; MON 88302 plants, glyphosate rates at first flower (FIG. 3)",No significant yield reductions
same,yield,"[3]; all construct 2 events, regardless of application rate",significantly reduced the yield
same,injury,"[3]; construct 2 events, all glyphosate rates tested",Unacceptable levels of injury
same,yield reduction,[4]; 2× the proposed rate of 1800 g ae/ha at four to six leaf,30%
same,yield vs unsprayed,[4]; 1800 and 3600 g ae/ha at both stages and 900 g/ha at first flower,significant yield reduction
same,yield reduction,[4]; 1800 g ae/ha at four to six leaf,11.4%
same,maturity,[4]; 3600 g ae/ha at both four to six leaf and first flower,delayed significantly
same,yield reduction,[4]; all rates shown at first flower (FIG. 3),significant yield reduction
same,7-10 DAT % CHLR Avg,[4]; [5],0.6%
same,14-21 DAT % GR Avg,[4]; [5],0.8%
same,7-10 DAT % CHLR Avg,[4]; [6],0.3%
same,14-21 DAT % GR Avg,[4]; [6],0.9%
same,7-10 DAT % CHLR Avg,[4]; [7],1.8%
same,14-21 DAT % GR Avg,[4]; [7],0.3%
same,7-10 DAT % CHLR Avg,[4]; [8],2.2%
same,14-21 DAT % GR Avg,[4]; [8],1.3%
same,7-10 DAT % CHLR Avg,[4]; [9],6.7%
same,14-21 DAT % GR Avg,[4]; [9],3.3%
same,7-10 DAT % CHLR Avg,[4]; [13],4.7%
same,14-21 DAT % GR Avg,[4]; [13],5.3%
same,7-10 DAT % CHLR Avg,[4]; [10],10%
same,14-21 DAT % GR Avg,[4]; [10],8.1%
same,7-10 DAT % CHLR Avg,"[4]; glyphosate 3600 g ae/ha at 1st flower, listed as Glyphosate",10.0%
same,7-10 DAT % CHLR Avg,[4]; [11],10%
same,14-21 DAT % GR Avg,[4]; [11],20.8%
same,7-10 DAT % CHLR Avg,"[4]; glyphosate 3600 g ae/ha at 4-6 leaf, listed as Glyphosate",10.0%

# From patent publication US12110496B2, “Method of determining the zygosity of event MON 88302” (priority 2010, dated 2024)
